Laboratory results from patent publication US9505798B2, “Steroid compounds as RORyt modulators and uses thereof” (New York University, priority 2010, dated 2016).

Assays:
[1] = test system: human Th17 cell differentiation; experiment: Human Th17 cell differentiation from naive cord blood CD4+ T cells; format: cell-based
Experimental: GFP expressing cells were gated for analysis. DMSO, Dig(dhd) (40 μM) or Dig(sal) (10 μM) was added 6-8 h after viral transduction. c, Flow cytometry of the production of IL-17a and IFN-γ by human naive cord blood T cells cultured for six days in the presence of IL-2, IL-23, and IL-1β, with various concentrations of TGF-β. DMSO, Dig(dhd), or Dig(sal) at indicated concentrations (μM) was added 16 h after cytokine addition.
Blood samples were obtained from the New York Blood Center. Mononuclear cells were prepared from buffy coats from healthy adult donors or from cord blood, using FicollPAQUE gradients. CD4^+ T cells were magnetically selected (autoMACS, Miltenyi). Adult memory CD4^+ T cell subsets were further purified as CD3^+CD4^+CD25^− CD45RO^+CCR6^+CD161^+ by cell sorting on a FACSAria (BD). Naive CD4^+ T cells were isolated from cord blood as CD3^+CD4^+CD45RA^+HLA-DR^−CD25^−DAPI^−. Memory cells were activated with anti-CD3/CD28 coated beads (1 bead/cell) in T cell media (see above) supplemented with 100 U/mL IL-2 (Peprotech), 10 ng/mL IL-1b and 10 ng/mL IL-23 (eBioscience). Naive cells were activated with anti-CD3/CD28 beads and cultured with the same cytokines, and TGF-b (0, 0.1, 1, or, 10 ng/mL) (Peprotech), in XVIVO-20 (Lonza) media. […] Naive CD4^+ T cells, cultured in XVIVO-20 media supplemented 100 U/mL IL-2 (Peprotech), were transduced with RORad-IRES-GFP or RORγt-IRES-GFP on day 1 and analyzed on day 6. GFP expressing cells were gated for analysis. DMSO or compounds were added 6-8 hours after the viral transduction.
Blood samples were obtained from the New York Blood Center. Mononuclear cells were prepared from buffy coats from healthy adult donors or from cord blood, using FicollPAQUE gradients. CD4^+ T cells were magnetically selected (autoMACS, Miltenyi). Adult memory CD4+ T cell subsets were further purified as CD3^+CD4^+CD25^−CD45RO^+CCR6^+CD161^+ by cell sorting on a FACSAria (BD). Naive CD4^+ T cells were isolated from cord blood as CD3^+CD4^+CD45RA^+HLA^−DR^−CD25^−DAPI^−. Memory cells were activated with anti-CD3/CD28 coated beads (1 bead/cell) in T cell media (see above) supplemented with 100 U/mL IL-2 (Peprotech), 10 ng/mL IL-1β and 10 ng/mL IL-23 (eBioscience). Naive cells were activated with anti-CD3/CD28 beads and cultured with the same cytokines, and TGF-β (0, 0.1, 1, or, 10 ng/mL) (Peprotech), in XVIVO-20 (Lonza) media. […] Naive CD4+ T cells, cultured in XVIVO-20 media supplemented with 100 U/mL IL-2 (Peprotech), were transduced with RORαd-IRES-GFP or RORγt-IRES-GFP on day 1 and analyzed on day 6. GFP expressing cells were gated for analysis. DMSO or compounds were added 6-8 hours after the viral transduction.

[2] = test system: gut (large intestine) Th17 cells; experiment: DSS-induced model relating to intestinal bowel diseases; format: in vivo, mouse; parameters: dose or concentration left out as unconfirmed; conditions: IP daily, day 7
Experimental: Th17 cells were induced by Dextran Sulfate Sodium (DSS) treatment, a chemical agent that causes intestinal epithelial injury, and thus, is often used to generate an animal model that mimics many aspects of intestinal bowel diseases. […] Gut associated mononuclear cells were collected and their cytokine expression was analyzed on day 7. Representative FACS plots (gated on CD4^+CD3^+TCRβ^+CD19^− cells) from each group are shown (left).
B6 wild-type mice received 2% DSS (Dextran Sulfate Sodium) ad libitum in drinking water for 7 days. […] Gut associated cells were collected and activated for cytokine straining on day 7. To isolate cells from the small intestinal lamina propria, Peyer's patches, fat and mesenterium were removed before opening the intestine longitudinally. The tissue was cut into 2 cm pieces and washed in calcium- and magnesium-free PBS (Gibco). The tissue was then washed for 10 minutes in cold 1 mM DTT (Sigma) in PBS then two 10 minute washes in 30 mM EDTA, 10 mM HEPES (Gibco) in PBS at 37° C. The tissue was washed with complete RPMI and digested for 1.5 hr at 37° C. in 5% CO2, humidified atmosphere, in complete RPMI containing 100 U ml-1 type VIII collagenase (Sigma) and 150 μg ml—1 DNaseI (Sigma). After digestion, cells were eluted from the tissue by shaking. Live cells were isolated using a Percoll (Pharmacia) gradient. […]

[3] = test system: pre-differentiated mouse Th17 cells; experiment: Pre-differentiated mouse Th17 cells from MOG-immunized mice, in vitro; format: cell-based; conditions: expanded Th17 cells from immunized mice, 10 μM
Source text: Mononuclear cells were collected from draining lymph nodes of wild-type or IL-23RGFP knock-in heterozygous mice 7 days after MOG(35-55)/CFA injection.

SMILES: CC1O[C@@H](OC2C(C)O[C@H](OC3C(C)O[C@@H](O[C@H]4CC[C@@]5(C)[C@H](CC[C@@H]6[C@@H]5C[C@@H](O)[C@]5(C)[C@@H](C(CO)CCO)CC[C@]65O)C4)C[C@H]3O)C[C@H]2O)C[C@@H](O)C1O (stereo partly drawn) [Compound 13, 20,22-Dihydrodigoxin-21,23-diol]
- expression of CCR6 [1]: reduced
- IFN-γ expression in T cells ([1]; FIG. 3c): reciprocal increases
- Th17 cell differentiation ([1]; FIG. 3c): blocked
- inhibition at 40 µM ([1]; Homo sapiens, CD4+ T, read-out: Th17 inhibition): ~80%

SMILES: C[C@H]1O[C@@H](O[C@H]2[C@@H](O)C[C@H](O[C@H]3[C@@H](O)C[C@H](O[C@H]4CC[C@@]5(C)[C@H](CC[C@@H]6[C@@H]5C[C@@H](O)[C@]5(C)[C@@H](C7=CC(=O)OC7)CC[C@]65O)C4)O[C@@H]3C)O[C@@H]2C)C[C@H](O)[C@@H]1O [Digoxin]
- number of gut (large intestine) Th17 cells [2]: reduction
- IL-23R and IL-17a expression [3]: inhibited both IL-23R (FIG. 4a) and IL-17a (FIG. 4b, bottom) expression without affecting IFN-γ expression
